What was measured:
Assay in all cases: KINOMEscan kinase binding assay (Eurofins/DiscoveRx), % Ctrl
kinases [1] = target: T1, kinases (Homo sapiens, UniProt P00519, F317I)
T1 construct: purchased Eurofins/DiscoveRx; host or cells: E. coli BL21-derived host (T7 phage display) for most kinases; HEK-293 for the rest
Method in brief: (§1)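 Competition binding, 1 h RT: phage-tagged or HEK-293-expressed DNA-tagged kinase + immobilized ligand + compound. Eluate kinase by qPCR. % Ctrl = (test − positive ctrl)/(negative ctrl − positive ctrl) × 100; lower means stronger binding.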

kinases [2] = target: T2, kinases (Homo sapiens, UniProt P07949, V804M)
T2 construct: purchased Eurofins/DiscoveRx; host or cells: E. coli BL21-derived host (T7 phage display) for most kinases; HEK-293 for the rest
T2 sequence (P07949 29-1114 V804M): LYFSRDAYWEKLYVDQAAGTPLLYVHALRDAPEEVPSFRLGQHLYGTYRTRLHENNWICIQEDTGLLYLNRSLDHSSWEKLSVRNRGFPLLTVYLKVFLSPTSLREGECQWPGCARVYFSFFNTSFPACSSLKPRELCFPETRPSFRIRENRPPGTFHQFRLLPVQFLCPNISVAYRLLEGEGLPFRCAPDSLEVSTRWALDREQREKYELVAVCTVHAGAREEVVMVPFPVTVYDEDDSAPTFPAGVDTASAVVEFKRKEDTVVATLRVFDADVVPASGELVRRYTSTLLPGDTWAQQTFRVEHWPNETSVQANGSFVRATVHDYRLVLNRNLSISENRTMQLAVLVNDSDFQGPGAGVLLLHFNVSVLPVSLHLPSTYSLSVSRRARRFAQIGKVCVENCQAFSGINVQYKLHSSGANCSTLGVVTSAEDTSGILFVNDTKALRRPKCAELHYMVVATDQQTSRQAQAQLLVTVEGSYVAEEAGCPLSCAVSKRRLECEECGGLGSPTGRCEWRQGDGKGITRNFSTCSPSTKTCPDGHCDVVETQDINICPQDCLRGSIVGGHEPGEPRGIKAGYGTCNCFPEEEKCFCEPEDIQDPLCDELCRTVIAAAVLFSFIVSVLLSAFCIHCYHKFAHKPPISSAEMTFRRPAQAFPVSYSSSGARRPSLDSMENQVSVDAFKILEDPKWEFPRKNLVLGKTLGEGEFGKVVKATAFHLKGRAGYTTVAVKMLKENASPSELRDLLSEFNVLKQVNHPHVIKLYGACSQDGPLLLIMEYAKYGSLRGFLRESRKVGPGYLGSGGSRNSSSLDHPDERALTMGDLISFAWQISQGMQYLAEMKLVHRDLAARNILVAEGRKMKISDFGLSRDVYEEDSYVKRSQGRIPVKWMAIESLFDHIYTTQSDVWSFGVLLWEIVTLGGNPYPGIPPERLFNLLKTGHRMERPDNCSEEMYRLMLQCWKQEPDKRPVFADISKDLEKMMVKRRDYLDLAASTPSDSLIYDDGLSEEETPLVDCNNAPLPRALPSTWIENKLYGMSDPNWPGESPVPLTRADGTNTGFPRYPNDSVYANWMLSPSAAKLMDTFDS
Method in brief: as §1

kinases [3] = target: T3, kinases (Homo sapiens, UniProt P10721, A829P)
T3 construct: purchased Eurofins/DiscoveRx; host or cells: E. coli BL21-derived host (T7 phage display) for most kinases; HEK-293 for the rest
T3 sequence (P10721 26-976 A829P): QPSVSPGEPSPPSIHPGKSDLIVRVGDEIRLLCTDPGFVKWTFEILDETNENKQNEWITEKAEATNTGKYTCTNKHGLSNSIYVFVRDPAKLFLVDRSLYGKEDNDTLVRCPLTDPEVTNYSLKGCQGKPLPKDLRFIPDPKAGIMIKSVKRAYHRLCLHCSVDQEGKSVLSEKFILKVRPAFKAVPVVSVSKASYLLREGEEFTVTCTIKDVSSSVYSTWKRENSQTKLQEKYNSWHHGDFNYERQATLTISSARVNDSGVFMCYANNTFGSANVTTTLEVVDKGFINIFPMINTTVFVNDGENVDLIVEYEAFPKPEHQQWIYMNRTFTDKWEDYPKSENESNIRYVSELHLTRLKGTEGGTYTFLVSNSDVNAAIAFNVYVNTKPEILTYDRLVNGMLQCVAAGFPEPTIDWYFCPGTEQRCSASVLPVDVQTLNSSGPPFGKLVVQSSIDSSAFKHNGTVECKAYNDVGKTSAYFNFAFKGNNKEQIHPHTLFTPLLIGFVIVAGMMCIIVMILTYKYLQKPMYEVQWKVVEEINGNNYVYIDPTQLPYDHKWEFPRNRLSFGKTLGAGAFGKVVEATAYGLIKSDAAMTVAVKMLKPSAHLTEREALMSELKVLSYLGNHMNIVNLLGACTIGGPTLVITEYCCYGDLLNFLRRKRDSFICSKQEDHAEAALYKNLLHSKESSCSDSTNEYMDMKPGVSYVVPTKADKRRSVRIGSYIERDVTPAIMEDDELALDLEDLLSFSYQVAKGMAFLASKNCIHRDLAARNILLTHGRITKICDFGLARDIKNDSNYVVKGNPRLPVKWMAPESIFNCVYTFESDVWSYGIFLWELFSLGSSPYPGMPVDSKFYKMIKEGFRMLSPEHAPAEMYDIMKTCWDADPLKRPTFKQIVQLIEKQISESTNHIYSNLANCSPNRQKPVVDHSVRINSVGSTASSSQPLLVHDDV
Method in brief: as §1

kinases [4] = target: T4, kinases (Homo sapiens, UniProt P36888, N841I)
T4 construct: purchased Eurofins/DiscoveRx; host or cells: E. coli BL21-derived host (T7 phage display) for most kinases; HEK-293 for the rest
T4 sequence (P36888 27-993 N841I): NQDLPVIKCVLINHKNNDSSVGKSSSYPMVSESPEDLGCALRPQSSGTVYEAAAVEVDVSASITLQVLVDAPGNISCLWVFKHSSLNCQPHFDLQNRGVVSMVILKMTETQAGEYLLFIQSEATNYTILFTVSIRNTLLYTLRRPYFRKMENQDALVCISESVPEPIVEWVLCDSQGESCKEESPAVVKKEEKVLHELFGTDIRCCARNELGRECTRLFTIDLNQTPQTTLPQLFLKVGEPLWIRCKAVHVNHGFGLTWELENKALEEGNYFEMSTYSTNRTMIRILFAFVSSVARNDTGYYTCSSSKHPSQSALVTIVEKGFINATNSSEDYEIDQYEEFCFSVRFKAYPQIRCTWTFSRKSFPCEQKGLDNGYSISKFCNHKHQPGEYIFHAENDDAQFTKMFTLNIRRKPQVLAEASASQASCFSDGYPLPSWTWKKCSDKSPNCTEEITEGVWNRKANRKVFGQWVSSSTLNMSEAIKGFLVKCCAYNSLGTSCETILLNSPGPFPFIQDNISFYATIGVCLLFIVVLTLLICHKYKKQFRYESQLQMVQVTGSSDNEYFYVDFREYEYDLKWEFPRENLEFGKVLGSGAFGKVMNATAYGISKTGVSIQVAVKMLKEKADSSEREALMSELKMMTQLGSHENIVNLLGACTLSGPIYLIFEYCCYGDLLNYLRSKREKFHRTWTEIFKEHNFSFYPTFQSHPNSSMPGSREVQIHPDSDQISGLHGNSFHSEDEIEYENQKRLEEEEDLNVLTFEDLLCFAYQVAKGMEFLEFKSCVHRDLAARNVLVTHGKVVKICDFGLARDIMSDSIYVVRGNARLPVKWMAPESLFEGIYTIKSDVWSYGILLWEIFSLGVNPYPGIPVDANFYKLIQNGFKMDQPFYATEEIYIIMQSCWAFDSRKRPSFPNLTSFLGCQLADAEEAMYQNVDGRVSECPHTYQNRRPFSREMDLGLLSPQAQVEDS
Method in brief: as §1

[5] = 1 μM; target ABL1(F317I)-nonphosphorylated
[6] = 1 μM; target ABL1(F317I)-phosphorylated
[7] = 1 μM; ABL1(F317I)-nonphosphorylated
[8] = 1 μM; ABL1(F317I)-phosphorylated

T1 sequence (P00519 whole entry F317I): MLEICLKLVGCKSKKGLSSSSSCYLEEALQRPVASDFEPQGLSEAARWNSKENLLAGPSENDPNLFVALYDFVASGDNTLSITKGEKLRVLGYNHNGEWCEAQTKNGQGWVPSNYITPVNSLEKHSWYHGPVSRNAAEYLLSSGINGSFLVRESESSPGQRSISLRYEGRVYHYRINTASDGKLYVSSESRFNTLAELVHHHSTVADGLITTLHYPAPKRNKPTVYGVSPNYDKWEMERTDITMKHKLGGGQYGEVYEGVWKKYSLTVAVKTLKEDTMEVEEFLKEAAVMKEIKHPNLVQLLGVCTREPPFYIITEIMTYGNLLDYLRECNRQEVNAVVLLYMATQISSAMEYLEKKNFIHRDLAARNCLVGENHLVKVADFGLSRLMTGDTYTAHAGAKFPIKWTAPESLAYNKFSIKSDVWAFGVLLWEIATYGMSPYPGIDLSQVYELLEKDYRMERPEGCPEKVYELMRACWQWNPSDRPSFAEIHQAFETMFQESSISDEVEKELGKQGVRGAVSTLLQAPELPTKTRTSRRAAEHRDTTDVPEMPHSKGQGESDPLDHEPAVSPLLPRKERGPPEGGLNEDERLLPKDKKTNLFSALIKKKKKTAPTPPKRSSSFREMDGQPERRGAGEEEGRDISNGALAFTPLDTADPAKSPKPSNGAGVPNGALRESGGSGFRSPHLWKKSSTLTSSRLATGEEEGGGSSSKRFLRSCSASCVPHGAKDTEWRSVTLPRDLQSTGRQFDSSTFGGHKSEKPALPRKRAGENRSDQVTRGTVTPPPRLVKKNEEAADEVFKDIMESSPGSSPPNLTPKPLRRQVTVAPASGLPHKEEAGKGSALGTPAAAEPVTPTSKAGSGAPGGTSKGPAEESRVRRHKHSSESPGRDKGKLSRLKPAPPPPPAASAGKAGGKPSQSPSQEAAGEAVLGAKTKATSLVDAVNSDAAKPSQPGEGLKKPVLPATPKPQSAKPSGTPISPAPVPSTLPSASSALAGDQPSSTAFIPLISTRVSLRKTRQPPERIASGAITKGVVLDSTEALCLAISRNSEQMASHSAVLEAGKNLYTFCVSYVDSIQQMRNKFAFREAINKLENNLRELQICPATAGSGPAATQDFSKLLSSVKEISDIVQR

Cc1cc2c([nH]1)/C=C1\C(=O)Nc3ccc(cc31)-c1c(noc1C(C)C)COCCN(C)C2=O [Ex. 161, [3a(4)Z]-9-methyl-16-(propan-2-yl)-10,11-dihydro-2H,13H-1,17-(ethanediylidene)[1,2]oxazolo[4,3-m]dipyrrolo[3,2-f:3′,4′-i][1,4]oxazacyclopentadecine-3,8(5H,9H)-dione]
% Ctrl, ABL1(F317I)-nonphosphorylated (kinases [1]; [5]): 100 % Ctrl
% Ctrl, ABL1(F317I)-phosphorylated (kinases [1]; [6]): 91 % Ctrl
% Ctrl, RET(V804M) (kinases [2]; 1 μM; target RET(V804M)): 83 % Ctrl
% Ctrl, KIT(A829P) (kinases [3]; 1 μM; target KIT(A829P)): 95 % Ctrl
% Ctrl, FLT3(N841I) (kinases [4]; 1 μM; target FLT3(N841I)): 39 % Ctrl

Cc1cc2c([nH]1)/C=C1\C(=O)Nc3ccc(cc31)-c1cnn(C)c1CN(C)CCN(C)C2=O [Ex. 126, [3a(4)Z]-6,9,12,14-tetramethyl-9,10,11,12,13,14-hexahydro-1,17-(ethanediylidene)pyrazolo[4,3-m]dipyrrolo[3,2-f:3′,4′-i][1,4]diazacyclopentadecine-3,8(2H,5H)-dione]
% Ctrl, ABL1(F317I)-nonphosphorylated (kinases [1]; [7]): 0 % Ctrl
% Ctrl, ABL1(F317I)-phosphorylated (kinases [1]; [8]): 0.3 % Ctrl
% Ctrl, RET(V804M) (kinases [2]; 1 μM; RET(V804M)): 0 % Ctrl
% Ctrl, KIT(A829P) (kinases [3]; 1 μM; KIT(A829P)): 0 % Ctrl
% Ctrl, FLT3(N841I) (kinases [4]; 1 μM; FLT3(N841I)): 0 % Ctrl

Cc1cc2c([nH]1)/C=C1\C(=O)Nc3cc(Cl)c(cc31)OCCO[C@@H](C(=O)N(C)C)CN(C)C2=O [Ex. 137, [7R,16a(17)Z]-19-chloro-N,N,2,5-tetramethyl-4,16-dioxo-4,5,6,7,9,10,15,16-octahydro-1H-12,14-(ethanediylidene)dipyrrolo[3,2-i:3′,4′-l][1,4,7]dioxazacyclopentadecine-7-carboxamide]
% Ctrl, ABL1(F317I)-nonphosphorylated (kinases [1]; [7]): 95 % Ctrl
% Ctrl, ABL1(F317I)-phosphorylated (kinases [1]; [8]): 83 % Ctrl
% Ctrl, RET(V804M) (kinases [2]; 1 μM; RET(V804M)): 57 % Ctrl
% Ctrl, KIT(A829P) (kinases [3]; 1 μM; KIT(A829P)): 75 % Ctrl
% Ctrl, FLT3(N841I) (kinases [4]; 1 μM; FLT3(N841I)): 49 % Ctrl

Cc1cc2c([nH]1)/C=C1\C(=O)Nc3cc(Cl)c(cc31)SCCOCCN(C)C2=O [Ex. 169, [16a(17)Z]-19-chloro-5-methyl-6,7,9,10-tetrahydro-1H-12,14-(ethanediylidene)dipyrrolo[3,4-g:2′,3′-j][1,4,13]oxathiazacyclopentadecine-4,16(5H,15H)-dione]
% Ctrl, ABL1(F317I)-nonphosphorylated (kinases [1]; [5]): 0.6 % Ctrl
% Ctrl, ABL1(F317I)-phosphorylated (kinases [1]; [6]): 5 % Ctrl
% Ctrl, RET(V804M) (kinases [2]; 1 μM; target RET(V804M)): 0.9 % Ctrl
% Ctrl, KIT(A829P) (kinases [3]; 1 μM; target KIT(A829P)): 22 % Ctrl
% Ctrl, FLT3(N841I) (kinases [4]; 1 μM; target FLT3(N841I)): 0 % Ctrl

Cc1cc2c([nH]1)/C=C1\C(=O)Nc3cc(Cl)c(cc31)OCCO[C@@H](C(=O)NC1CCNCC1)CN(C)C2=O [Ex. 134, [7R,16a(17)Z]-19-chloro-2,5-dimethyl-4,16-dioxo-N-(piperidin-4-yl)-4,5,6,7,9,10,15,16-octahydro-1H-12,14-(ethaneidylidene)dipyrrolo[3,2-i:3′,4′-l][1,4,7]dioxazacyclopentadecine-7-carboxamide]
% Ctrl, ABL1(F317I)-nonphosphorylated (kinases [1]; [7]): 84 % Ctrl
% Ctrl, ABL1(F317I)-phosphorylated (kinases [1]; [8]): 70 % Ctrl
% Ctrl, RET(V804M) (kinases [2]; 1 μM; RET(V804M)): 81 % Ctrl
% Ctrl, KIT(A829P) (kinases [3]; 1 μM; KIT(A829P)): 69 % Ctrl
% Ctrl, FLT3(N841I) (kinases [4]; 1 μM; FLT3(N841I)): 26 % Ctrl

Cc1cc2c([nH]1)/C=C1\C(=O)Nc3cc(Cl)c(cc31)OCCO[C@@H](C(=O)NC1CNC1)CN(C)C2=O [Ex. 133, [7R,16a(17)Z]-N-(azetidin-3-yl)-19-chloro-2,5-dimethyl-4,16-dioxo-4,5,6,7,9,10,15,16-octahydro-1H-12,14-(ethanediylidene)dipyrrolo[3,2-i:3′,4′-l][1,4,7]dioxazacyclopentadecine-7-carboxamide]
% Ctrl, ABL1(F317I)-nonphosphorylated (kinases [1]; [7]): 93 % Ctrl
% Ctrl, ABL1(F317I)-phosphorylated (kinases [1]; [8]): 89 % Ctrl
% Ctrl, RET(V804M) (kinases [2]; 1 μM; RET(V804M)): 69 % Ctrl
% Ctrl, KIT(A829P) (kinases [3]; 1 μM; KIT(A829P)): 54 % Ctrl
% Ctrl, FLT3(N841I) (kinases [4]; 1 μM; FLT3(N841I)): 19 % Ctrl

Cc1cc2c([nH]1)/C=C1\C(=O)Nc3ccc(cc31)-c1cnn(C)c1OCCCN(C)C2=O [Ex. 166, [3a(4)Z]-9,14-dimethyl-9,10,11,12-tetrahydro-14H-1,17-(ethanediylidene)pyrazolo[4,3-n]dipyrrolo[3,2-g:3′,4′-j][1,5]oxazacyclopentadecine-3,8(2H,5H)-dione]
% Ctrl, ABL1(F317I)-nonphosphorylated (kinases [1]; [5]): 80 % Ctrl
% Ctrl, ABL1(F317I)-phosphorylated (kinases [1]; [6]): 31 % Ctrl
% Ctrl, RET(V804M) (kinases [2]; 1 μM; target RET(V804M)): 0.1 % Ctrl
% Ctrl, KIT(A829P) (kinases [3]; 1 μM; target KIT(A829P)): 28 % Ctrl
% Ctrl, FLT3(N841I) (kinases [4]; 1 μM; target FLT3(N841I)): 0 % Ctrl

Cc1cc2c([nH]1)/C=C1\C(=O)Nc3ccc(cc31)-c1c(C)nn(C)c1COCCN(C)C2=O [Ex. 146, [3a(4)Z]-6,9,14,16-tetramethyl-10,11,13,14-tetrahydro-2H-1,17-(ethanediylidene)pyrazolo[4,3-m]dipyrrolo[3,2-f:3′,4′-i][1,4]oxazacyclopentadecine-3,8(5H,9H)-dione]
% Ctrl, ABL1(F317I)-nonphosphorylated (kinases [1]; target ABL1(F317I)-nonphosphorylated; 1 μM): 100 % Ctrl
% Ctrl, ABL1(F317I)-phosphorylated (kinases [1]; target ABL1(F317I)-phosphorylated; 1 μM): 100 % Ctrl
% Ctrl, RET(V804M) (kinases [2]; target RET(V804M); 1 μM): 12 % Ctrl
% Ctrl, KIT(A829P) (kinases [3]; target KIT(A829P); 1 μM): 92 % Ctrl
% Ctrl, FLT3(N841I) (kinases [4]; target FLT3(N841I); 1 μM): 0 % Ctrl
